According to the OligoGym collection:
HELM strings list units from the 5' end as sugar, base in round brackets, then linkage (d deoxyribose, r ribose, m 2'-O-methyl, p phosphodiester). Strings are as the collection lists them; they lack the last nucleoside at the 3' end of the tested compound. [moe] = 2'-O-(2-methoxyethyl) (MOE); [sp] = phosphorothioate linkage; [m5C] = 5-methylcytosine

Biological target: C9ORF72
Assay: mouse, dose not given
Settings: ASO

Compared with “RNA1{[moe](G)[sp].[moe](G)p.[moe]([m5C])p.[moe](T)p.[moe](G)p.d([m5C])[sp].d(G)[sp].d(G)[sp].d(T)[sp].d(T)[sp].d(G)[sp].d(T)[sp].d(T)[sp].d(T)[sp].[moe]([m5C])p.[moe]([m5C])p.[moe]([m5C])[sp].[moe](T)}$$$$ (last 3' nucleoside missing)”, “RNA1{[moe](G)[sp].[moe](G)p.[moe]([m5C])p.[moe](T)p.d(G)[sp].d([m5C])[sp].d(G)[sp].d(G)[sp].d(T)[sp].d(T)[sp].d(G)[sp].d(T)[sp].d(T)[sp].[moe](T)p.[moe]([m5C])p.[moe]([m5C])p.[moe]([m5C])[sp].[moe](T)}$$$$ (last 3' nucleoside missing)” is higher in 3 h FOB score: 5.5 score 0-7 for the first, 6 score 0-7 for the second.

Compared with “RNA1{[moe](G)[sp].[moe](G)p.[moe]([m5C])p.[moe]([m5C])[sp].d([m5C])[sp].d([m5C])[sp].d(T)[sp].d(A)[sp].d(G)[sp].d([m5C])[sp].d(G)[sp].d([m5C])[sp].[moe](G)p.[moe]([m5C])p.[moe](G)p.[moe](A)[sp].[moe]([m5C])}$$$$ (last 3' nucleoside missing)”, “RNA1{[moe](G)[sp].[moe](G)p.[moe]([m5C])p.[moe]([m5C])p.[moe]([m5C])p.[moe]([m5C])[sp].d(T)[sp].d(A)[sp].d(G)[sp].d([m5C])[sp].d(G)[sp].d([m5C])[sp].d(G)[sp].d([m5C])[sp].[moe](G)p.[moe](A)[sp].[moe]([m5C])}$$$$ (last 3' nucleoside missing)” is higher in 3 h FOB score: 2.5 score 0-7 for the first, 3.25 score 0-7 for the second.

First: RNA1{[moe](G)[sp].[moe](G)p.[moe]([m5C])p.[moe]([m5C])p.[moe]([m5C])p.[moe]([m5C])p.d(T)[sp].d(A)[sp].d(G)[sp].d([m5C])[sp].d(G)[sp].d([m5C])[sp].d(G)[sp].d([m5C])[sp].d(G)[sp].d(A)[sp].[moe]([m5C])p.[moe](T)[sp].[moe]([m5C])}$$$$ (last 3' nucleoside missing)
Second: RNA1{[moe](G)[sp].[moe](G)p.[moe]([m5C])p.[moe]([m5C])p.d([m5C])[sp].d([m5C])[sp].d(T)[sp].d(A)[sp].d(G)[sp].d([m5C])[sp].d(G)[sp].d([m5C])[sp].d(G)[sp].d([m5C])[sp].[moe](G)p.[moe](A)p.[moe]([m5C])p.[moe](T)[sp].[moe]([m5C])}$$$$ (last 3' nucleoside missing)
The 3 h FOB score of the first is lower: 1.25 score 0-7 for the first, 1.5 score 0-7 for the second.

First: RNA1{[moe](G)[sp].[moe](T)p.[moe](T)p.[moe](A)[sp].d(A)[sp].d(T)[sp].d([m5C])[sp].d(T)[sp].d(T)[sp].d(T)[sp].d(A)[sp].d(T)[sp].[moe]([m5C])p.[moe](A)p.[moe](G)p.[moe](G)[sp].[moe](T)}$$$$ (last 3' nucleoside missing)
Second: RNA1{[moe](G)[sp].[moe](T)p.[moe](T)p.[moe](A)p.[moe](A)p.[moe](T)[sp].d([m5C])[sp].d(T)[sp].d(T)[sp].d(T)[sp].d(A)[sp].d(T)[sp].d([m5C])[sp].d(A)[sp].[moe](G)p.[moe](G)[sp].[moe](T)}$$$$ (last 3' nucleoside missing)
The 3 h FOB score of the first is lower: 1 score 0-7 for the first, 3 score 0-7 for the second.

First: RNA1{[moe](G)[sp].[moe]([m5C])[sp].[moe]([m5C])[sp].[moe](T)[sp].[moe](T)[sp].d(A)[sp].d([m5C])[sp].d(T)[sp].d([m5C])[sp].d(T)[sp].d(A)[sp].d(G)[sp].d(G)[sp].d(A)[sp].d([m5C])[sp].[moe]([m5C])[sp].[moe](A)[sp].[moe](A)[sp].[moe](G)}$$$$ (last 3' nucleoside missing)
Second: RNA1{[moe](G)[sp].[moe]([m5C])p.[moe](T)p.[moe](G)[sp].d([m5C])[sp].d(G)[sp].d(G)[sp].d(T)[sp].d(T)[sp].d(G)[sp].d(T)[sp].d(T)[sp].[moe](T)p.[moe]([m5C])p.[moe]([m5C])p.[moe]([m5C])[sp].[moe](T)}$$$$ (last 3' nucleoside missing)
The 3 h FOB score of the first is higher: 7 score 0-7 for the first, 5 score 0-7 for the second.

First: RNA1{[moe](G)[sp].[moe]([m5C])p.[moe](T)p.[moe](G)p.[moe]([m5C])p.[moe](G)[sp].d(G)[sp].d(T)[sp].d(T)[sp].d(G)[sp].d(T)[sp].d(T)[sp].d(T)[sp].d([m5C])[sp].[moe]([m5C])p.[moe]([m5C])[sp].[moe](T)}$$$$ (last 3' nucleoside missing)
Second: RNA1{[moe](G)[sp].[moe]([m5C])p.[moe]([m5C])[sp].d(T)[sp].d(T)[sp].d(A)[sp].d([m5C])[sp].d(T)[sp].d([m5C])[sp].d(T)[sp].d(A)[sp].[moe](G)p.[moe](G)p.[moe](A)p.[moe]([m5C])p.[moe]([m5C])[sp].[moe](A)}$$$$ (last 3' nucleoside missing)
The 3 h FOB score of the first is higher: 5.5 score 0-7 for the first, 1.25 score 0-7 for the second.

First: RNA1{[moe](G)[sp].[moe]([m5C])p.[moe]([m5C])p.[moe](T)[sp].d(T)[sp].d(A)[sp].d([m5C])[sp].d(T)[sp].d([m5C])[sp].d(T)[sp].d(A)[sp].d(G)[sp].[moe](G)p.[moe](A)p.[moe]([m5C])p.[moe]([m5C])[sp].[moe](A)}$$$$ (last 3' nucleoside missing)
Second: RNA1{[moe](G)[sp].[moe]([m5C])p.[moe]([m5C])p.[moe](T)p.[moe](T)p.[moe](A)[sp].d([m5C])[sp].d(T)[sp].d([m5C])[sp].d(T)[sp].d(A)[sp].d(G)[sp].d(G)[sp].d(A)[sp].[moe]([m5C])p.[moe]([m5C])[sp].[moe](A)}$$$$ (last 3' nucleoside missing)
The 3 h FOB score of the first is lower: 0.25 score 0-7 for the first, 1 score 0-7 for the second.

Going from “RNA1{[moe](G)[sp].[moe]([m5C])p.[moe]([m5C])p.[moe](T)p.[moe](T)p.[moe](A)p.[moe]([m5C])[sp].d(T)[sp].d([m5C])[sp].d(T)[sp].d(A)[sp].d(G)[sp].d(G)[sp].d(A)[sp].d([m5C])[sp].[moe]([m5C])[sp].[moe](A)}$$$$ (last 3' nucleoside missing)” to “RNA1{[moe](G)[sp].[moe]([m5C])p.[moe]([m5C])p.[moe](T)p.[moe](T)p.[moe](A)p.[moe]([m5C])p.d(T)[sp].d([m5C])[sp].d(T)[sp].d(A)[sp].d(G)[sp].d(G)[sp].d(A)[sp].d([m5C])[sp].d([m5C])[sp].d(A)[sp].[moe](A)[sp].[moe](G)}$$$$ (last 3' nucleoside missing)”, the 3 h FOB score rises from 2.5 score 0-7 to 3.25 score 0-7.

First: RNA1{[moe](G)[sp].[moe]([m5C])p.[moe]([m5C])p.[moe](T)p.[moe](T)p.[moe](A)p.d([m5C])[sp].d(T)[sp].d([m5C])[sp].d(T)[sp].d(A)[sp].d(G)[sp].d(G)[sp].d(A)[sp].d([m5C])[sp].d([m5C])[sp].[moe](A)p.[moe](A)[sp].[moe](G)}$$$$ (last 3' nucleoside missing)
Second: RNA1{[moe](G)[sp].[moe]([m5C])p.[moe]([m5C])p.[moe](T)p.d(T)[sp].d(A)[sp].d([m5C])[sp].d(T)[sp].d([m5C])[sp].d(T)[sp].d(A)[sp].d(G)[sp].d(G)[sp].d(A)[sp].[moe]([m5C])p.[moe]([m5C])p.[moe](A)p.[moe](A)[sp].[moe](G)}$$$$ (last 3' nucleoside missing)
The 3 h FOB score of the first is lower: 2.25 score 0-7 for the first, 5.75 score 0-7 for the second.

First: RNA1{[moe](G)[sp].[moe]([m5C])p.[moe]([m5C])p.[moe]([m5C])[sp].d([m5C])[sp].d(T)[sp].d(A)[sp].d(G)[sp].d([m5C])[sp].d(G)[sp].d([m5C])[sp].d(G)[sp].[moe]([m5C])p.[moe](G)p.[moe](A)p.[moe]([m5C])[sp].[moe](T)}$$$$ (last 3' nucleoside missing)
Second: RNA1{[moe](G)[sp].[moe]([m5C])p.[moe]([m5C])p.[moe]([m5C])p.[moe]([m5C])p.[moe](T)[sp].d(A)[sp].d(G)[sp].d([m5C])[sp].d(G)[sp].d([m5C])[sp].d(G)[sp].d([m5C])[sp].d(G)[sp].[moe](A)p.[moe]([m5C])[sp].[moe](T)}$$$$ (last 3' nucleoside missing)
The 3 h FOB score of the first is higher: 1.5 score 0-7 for the first, 1 score 0-7 for the second.

Compared with “RNA1{[moe](G)[sp].[moe]([m5C])p.[moe]([m5C])p.[moe]([m5C])p.[moe]([m5C])p.[moe](T)p.d(A)[sp].d(G)[sp].d([m5C])[sp].d(G)[sp].d([m5C])[sp].d(G)[sp].d([m5C])[sp].d(G)[sp].d(A)[sp].d([m5C])[sp].[moe](T)p.[moe]([m5C])[sp].[moe]([m5C])}$$$$ (last 3' nucleoside missing)”, “RNA1{[moe](G)[sp].[moe]([m5C])p.[moe]([m5C])p.[moe]([m5C])p.d([m5C])[sp].d(T)[sp].d(A)[sp].d(G)[sp].d([m5C])[sp].d(G)[sp].d([m5C])[sp].d(G)[sp].d([m5C])[sp].d(G)[sp].[moe](A)p.[moe]([m5C])p.[moe](T)p.[moe]([m5C])[sp].[moe]([m5C])}$$$$ (last 3' nucleoside missing)” is higher in 3 h FOB score: 0 score 0-7 for the first, 1.25 score 0-7 for the second.

Compared with “RNA1{[moe](G)[sp].[moe]([m5C])p.[moe]([m5C])p.d(T)[sp].d(T)[sp].d(A)[sp].d([m5C])[sp].d(T)[sp].d([m5C])[sp].d(T)[sp].d(A)[sp].d(G)[sp].d(G)[sp].[moe](A)p.[moe]([m5C])p.[moe]([m5C])p.[moe](A)p.[moe](A)[sp].[moe](G)}$$$$ (last 3' nucleoside missing)”, “RNA1{[moe](T)[sp].[moe](A)[sp].[moe]([m5C])[sp].[moe](A)[sp].[moe](G)[sp].d(G)[sp].d([m5C])[sp].d(T)[sp].d(G)[sp].d([m5C])[sp].d(G)[sp].d(G)[sp].d(T)[sp].d(T)[sp].d(G)[sp].[moe](T)[sp].[moe](T)[sp].[moe](T)[sp].[moe]([m5C])}$$$$ (last 3' nucleoside missing)” is higher in 3 h FOB score: 2 score 0-7 for the first, 7 score 0-7 for the second.

Going from “RNA1{[moe](T)[sp].[moe](G)p.[moe](G)p.[moe](T)[sp].d(T)[sp].d(A)[sp].d(A)[sp].d(T)[sp].d([m5C])[sp].d(T)[sp].d(T)[sp].d(T)[sp].[moe](A)p.[moe](T)p.[moe]([m5C])p.[moe](A)[sp].[moe](G)}$$$$ (last 3' nucleoside missing)” to “RNA1{[moe](T)[sp].[moe](G)p.[moe](G)p.[moe](T)p.[moe](T)p.[moe](A)[sp].d(A)[sp].d(T)[sp].d([m5C])[sp].d(T)[sp].d(T)[sp].d(T)[sp].d(A)[sp].d(T)[sp].[moe]([m5C])p.[moe](A)[sp].[moe](G)}$$$$ (last 3' nucleoside missing)”, the 3 h FOB score rises from 3.25 score 0-7 to 6.25 score 0-7.
